From the text: The datasets from the clinical trials described above were used in a population PK and PK/PD modeling analysis. Three PK samples were excluded from the analyses because their baseline values were over the limit of quantification. The ELEKTRA dataset contained 69 single-dose and 270 steady-state dose events. Individual variables from those studies were included in the dataset to determine significant covariates and their effect size. Subject variables included the study ID, patient ID, treatment, health status, and DEE disease type. Baseline demographic variables included age, body weight, body mass index, gender, race, and Chinese or Asian ethnic origin. Baseline laboratory variables included aspartate aminotransferase (AST), gamma-glutamyl transferase (GGT), alkaline phosphatase (ALP), bilirubin, creatinine, albumin, alpha-1-acid glycoprotein (A1-AGLP), estimated glomerular filtration rate (eGFR), and creatinine clearance (CrCl)) (see formulas in example 12). […] Another variable was the type of antiepileptic drugs patients were on concomitantly during the trial.
The dataset included 2193 observations from 173 subjects. Both PK and PK/PD parameters were analyzed as a mixed-effects population model using the computer program NONMEM. A mixed-effects model takes into account fixed value parameters and random-effect parameters. The first stage of the analysis began with using only data obtained from the oral solution studies in a structural and statistical base model to account for concentration changes over time and for between and within subject variability. Several different structural model types were tested and the structure of the omega complex was optimized. Omega, expressed as random effects variance, represents the difference between an individual's parameter value and the population value and describes the distribution of between subject variability across the population. The linear two-compartment model incorporates delayed first-order absorption from oral administration. Model parameters were absorption lag time (ALAG1), bioavailability (F1), elimination clearance (CL), absorption rate constant (KA), central volume (V2), inter-compartmental clearance (Q), and peripheral volume (V3). Random effects were estimated for F1, KA, Q, and V3. The omega matrix was restricted to a diagonal structure, wherein between parameter correlations are ignored. A combined additive and proportional residue error model was utilized to broadly reflect […].
The second stage of the analysis added data collected from the tablet formulation studies in adults.
The third stage of the analysis added the pediatric data collected from the ELEKTRA study. A range of different formulations and administration procedures were used for the pediatric patients, including swallowed mini-tablets, tablets, and crushed tablets administered through a gastrostomy tube. […] Next variables were screened separately by correlating the individual random effects with the base model. An F-test was used to determine the significance of the individual random effects with and without the variable. Candidates were further screened using a standard forward inclusion (α<0.05), backward deletion (α<0.01) procedure.

[1] = between subject variation as standard deviation

O=C(c1cccnc1-c1ccncc1)N1CCC(O)(Cc2ccccc2)CC1 [soticlestat]
simulated change in AUC with twice the dosage (FIG. 21, reference ELEKTRA patient 100 mg BID): 130% | F1: BSV [1]: 0.538 | KA: BSV [1]: 1.1 | Q: BSV [1]: 0.369 | V3: BSV [1]: 0.559 | ALAG1: Non-OS formulation (%) (covariate effect on ALAG1): 25.2% | CL: Patient (%) (covariate effect on CL): −24.4% | F1: A1-AGLP exponent (covariate effect on F1): 0.739 | F1: weight exponent (covariate effect on F1): −0.516 | F1: Dose exponent (covariate effect on F1, fixed): 0.204 | KA: BMI exponent (covariate effect on KA): 2.52 | KA: Strong Inducer (%) (covariate effect on KA): −73.7% | KA: non-OS formulation (%) (covariate effect on KA): −45.7% | KA: Dose exponent (covariate effect on KA, fixed): −0.753 | Q: Dose exponent (covariate effect on Q, fixed): −0.218 | V3: Asian (%) (covariate effect on V3): −39.4% | V3: eGFI exponent (covariate effect on V3): −0.469 | V3: Dose exponent (covariate effect on V3, fixed): −0.214 | ALAG1 typical value (final population PK model): 0.131 h | F1: BSV explained by A1-AGLP (%) (final population PK model): 33.6% | KA typical value (final population PK model): 7.49 h⁻¹ | Q typical value (final population PK model): 1.16 L/h | V2 typical value (final population PK model): 2.99 L | V3 typical value (final population PK model): 7.51 L | F1 typical value (final population PK model, fixed): 0.0216 | CL typical value (human): 4.31 L/h | estimated weight exponent on steady state AUC (human): 0.516 | typical value for CL/F (human): 150 L/h | typical value for V2/F (central volume distribution) (population model): 138.43 L
